This is an account of results in US5015661A, “Chromanes and their pharmaceutical compositions and methods” (Hoffmann-La Roche Inc., priority 1989, dated 1991).

Test [1] deals with arachidonic acid-induced mouse ear edema. The experiment in a line: Mouse ear edema test (in vivo), arachidonic acid-induced. As to conditions: 1 mg topical, CD-1 male mice, 0.5 mg arachidonic acid 0.5 or 4 hours later, ear biopsy weight after 1 hour, read-out: EAR EDEMA % INHIB. 1 mg. The procedure:
MOUSE EAR EDEMA TEST (IN VIVO)
In this animal model system, the application of arachidonic acid to the ear results in the biosynthesis of the metabolic products […]-6,8,11,14-eicosatetraenoic acid (5-HETE), leukotriene B4 (LTB4), leukotriene C4 (LTC4), […]-5,8,10,14-eicosatetraenoic acid (12-HETE), and prostaglandin E2 (PGE2) at the site of application, followed by the influx of neutrophils into the site and the rapid development of edema within 30 to 60 minutes (See, for instance, Young, Wagner and Spries, "Tachyphylaxis in 12-O-Tetradecanoylphorbol Acetate And Arachidonic Acid-Induced Ear Edma," J. Invest. Dermatol. 80:48 (1983) and Hames, Opas and Bonney, "Arachidonic Acid MetaboIites in Mouse Ear Edma" Advances in Inflammation Research. 11:57 (1986).
CD-1 male mice weighing 15 to 25 g were employed, and they were designated as follows: (1) Control Group, in which no arachidonic acid or test compound was to be applied, (2) Arachidonic Acid-Treated Group, in which no test compound was to be applied, and (3) Treated Group, in which the test compound was to be applied first, followed by the application of arachidonic acid.
In the case of the Group (3) animals, the test compound, dissolved in acetone, was applied to the dorsal surface of the right ear of the mouse with a 25-microliter pipette or, with the dose of the test compound being varied. After 0.5 hours in some cases and 4 hours in others, the arachidonic acid was topically applied in the same manner as above to the pretreated ear areas. In each case of arachidonic acid application, an amount of 0.5 mg dissolved in 25 microliters of acetone was used. After 1 hour, the mice were sacrificed by carbon dioxide inhalation. A 6mm-diameter standard biopsy punch was used to obtain a uniform tissue sample from the ear of each mouse so treated, and the tissue samples were weighted to the nearest 0.1 mg. The percent inhibition of ear edema formation was calculated as follows: [formula]

Test [2] deals with superoxide-dependent, iron-promoted lipid peroxidation of native rat heart cardiac lipid liposomes. The experiment in a line: Lipid peroxidation inhibition (in vitro testing of antiperoxidative agents, ANTI-OX), hypoxanthine-xanthine oxidase-Fe3+.ADP, rat cardiac liposomes, MDA equivalents. The test is classed as biochemical. As to conditions: 60 min, 37° C., screened at 1.0 μM, IC50 determined if inhibition ≥ 50%, read-out: ANTI-OX IC-50. The procedure:
The test system employs hypoxanthine-xanthine oxidase (XO)-Fe^3+. ADP as the free radical generator and purified, native rat-heart membrane phosphoglyceride in Hepes-KCl buffer, pH 7.4, as the substrate. Inhibition of superoxide-dependent, iron-promoted lipid peroxidation in the linear reaction phase (after 1 hour of reaction) is measured as the net formation of thiobarbituric acid (TBA)-reactive material. In this system, the TBA-reactive material, isolated by HPLC, is exclusively (>95%) malondialdehyde (MDA), a fragmentation end-product arising from fatty acyl hydroperoxides and cyclic endoperoxides. […]
a) Isolation and purification of Rat Cardiac Lipid
Conscious male Sprague-Dawley rats (~275g) maintained on a normal rodent diet were decapitated. The hearts were rapidly removed and perfused via the aorta with ice-cold 10 mM Hepes buffer, pH 7.4. The aorta and atria were removed, and the ventricular tissue was blotted and weighed (wet weight). The hearts were minced on ice with scissors and finally homogenized (100 mg tissue/ml ice-cold buffer) for 15 seconds (3×5 seconds) with a Tekmar Tissumizer at "maximal" setting. The homogenate was filtered through 4-ply cheesecloth, and homogenate lipids were extracted and purified by a modified Bligh-Dyer procedure (M.D. Marshall and M. Kates, Biochem. Biophys. Acta 260, 558 (1972). The cardiac lipids were stored in CHCl3 under nitrogen at -20° C. […]
b) Preparation of Cardiac Liposomes
Liposomes were prepared from extracted and purified, native rat heart cardiac lipid and were used as substrate for free-radical attack. Cardiac lipid (in CHCl3) was placed in a glass flask and evaporated to dryness under nitrogen at room temperature; the flask was gently rotated during evaporation to yield a thin, dry lipid film. The lipid was taken up in 10 mM Hepes-0.145M KCl, pH 7.4, and was resuspended by indirect an aerobic sonification for 15 minutes at room temperature. The liposome suspension was used immediately. […]
c) preparation of Fe^3+ -ADP Chelate
A chelate was formed in Hepes-KCl buffer between Fe^3+ (1.0mM FeCl3, final concentration) and ADP (10mM, final concentration) at pH 7.4 with stirring at room temperature. Chelation was allowed to proceed for 90 minutes prior to use. The chelate was prepared fresh for each days experiments to ensure iron solubility, effective chelation, and valence state. […]
d) Thiobarbituric Acid Reaction or Determination of Malondialdehvde Equivalents Malondialdehyde (MDA) equivalents were measured as thiobarbituric acid (TBA)-reactive material by the following modification of published methods. The reaction mixture. prepared fresh daily, contained water: BHT ([…] BHT in absolute ethanol): TBA (1.5% TBA in 0.2M Tris, pH 7.0) in the volume ratio 1:1:5. To each 1.0 ml of peroxidation reaction assayed (see below), 0.35 ml reaction mixture was added. After thorough mixing, the tubes were incubated in an 80° C. shaking water bath for 30 minutes. After this time, the tubes were plunged into an ice water bath, and the reaction was immediately stopped with 0.5 ml ice-cold 91% TCA followed by 2.0 ml CHCl3 After centrifugation for 30 minutes at 2000 rpm in a Sorval HL-8 rotor (4° C.), the absorbance of the washed, pink upper phase was read at 532 nm. A standard curve (0.8-40.0 nmol MDA) was run with every assay. For each curve, MDA was freshly prepared by acidification of 1,1,3,3 -tetraethoxypropane with 75% TCA-2.3N HCl (0.15 ml acid mixture with 1.0 ml suitably diluted tetraethoxypropane). Computer-assisted regression analysis of the standard curve was used to quantify the molar amounts of MDA equivalents in the experimental samples. […]
e) Lipid peroxidation Reaction
Cardiac liposomes were subjected to superoxidedependent. iron-promoted peroxidation in glass vessels to avoid the well-known antioxidant effects of many common polymerizing agents used to fabricate plastic labware. […]

Where only a bound is given, the exact number is not on record here.

Regarding `Cc1c(C)c2c(c(C)c1O)CCC(C)(C#Cc1ccccc1)O2` (racemic) [Example 1, rac-3,4-Dihydro-2,5,7,8-tetramethyl-2-(phenylethynyl)-2H-1-benzopyran-6-ol], the inhibition in vivo at 1 mg in test [1] was 45%. The IC50 in test [2] amounted to 650 nM.
For `Cc1c(C)c2c(c(C)c1O)CC[C@](C)(C#Cc1cccs1)O2` [Example 5, (R)-3,4-Dihydro-2,5,7,8-tetramethyl-2-[(2-thienyl)ethynyl]-2H-1-benzopvran-6-ol] the same measures were 66% and 800 nM.
On the same counts, the results for `Cc1c(C)c2c(c(C)c1O)CCC(C)(C#Cc1ccccn1)O2` (racemic) [Example 15, rac-3,4-Dihydro-2,5,7,8-tetramethyl1-2-[(2-pyridinyl)ethynyl]-2H-1-benzopyran-6-ol] are 18% and above 1000 nM.
On the same counts, the results for `Cc1c(C)c2c(c(C)c1O)CCC(C)(CCc1cccnc1)O2` (racemic) [Example 59, rac-3,4-Dihydro-2,5,7,8-tetramethyl-2-[2-(3-pyridinyl)ethyl]-2H-1-benzopyran-6-ol] are 48% and 500 nM.
Consider `CCCCc1ccc(C#CC2(C)CCc3c(C)c(O)c(C)c(C)c3O2)s1` (racemic) [Example 31, rac-2-[(5-Butyl-2-thienyl)ethynyl]-3,4-dihydro-2,5,7,8-tetramethyl-2H-1-benzopyran-6-ol], for which the inhibition in vivo at 1 mg in test [1] came out at 24%. Besides, the IC50 in test [2] stood at 550 nM.
On the same counts, the results for `Cc1c(C)c2c(c(C)c1O)CC[C@@](C)(C#Cc1cccs1)O2` [Example 13, (S)-3,4-Dihydro-2,5,7,8-tetramethyl-2-[(2-thienyl)ethynyl]-2H-1-benzopyran-6-ol] are 32% and above 1000 nM.
On the same counts, the results for `Cc1ccc2oc(C3(C)CCc4c(C)c(O)c(C)c(C)c4O3)cc2n1` (racemic) [Example 51, rac-3,4-Dihydro-2-(5-methylfuro[3,2[b]pyridin-2-yl)-2,5,7,8-tetramethyl-2H-1-benzopyran-6ol] are 69% and above 1000 nM.
On to `Cc1c(C)c2c(c(C)c1O)CCC(C)(C#Cc1csc3ccccc13)O2` (racemic) [Example 16, rac-[2-(Benzo[b]thiophen-3-yl)ethynyl]-3.4-dihydro-2,5,7,8-tetramethyl-2H-1-benzopyran-2H-1-benzopyran-6-ol], for which the inhibition in vivo at 1 mg in test [1] worked out at 62%. For the same compound, the IC50 in test [2] came to 560 nM.
For `Cc1c(C)c2c(c(C)c1O)CCC(C)(C#Cc1ccc(OCc3ccccc3)c(O)c1)O2` (racemic) [Example 43, rac-3,4-Dihydro-2-{[3-hydroxy-4-(phenylmethoxY)phenyl]-ethynyl}-2,5,7,8-tetramethyl-2H-1-benzopyran-6-ol] the same measures were 31% and 370 nM.
For `Cc1c(C)c2c(c(C)c1O)CCC(C)(CCc1cccs1)O2` (racemic) [Example 57, rac-3,4-Dihydro-2,5,7,8-tetramethyl-2-[2-(2-thienyl)ethyl]-2H-1-benzo-pyran-6-ol] the same measures were 41% and above 1000 nM.
For `CC(=O)Oc1cc(C#CC2(C)CCc3c(C)c(O)c(C)c(C)c3O2)ccc1OCc1ccccc1` (racemic) [Example 41, rac-2-{[3-Acetyloxy-4-(phenylmethoxy)phenyl]ethynyl}-3,4-dihydro-2,5,7,8-tetramethyl-2H-1-benzopyran-6-ol] the same measures were 31% and 480 nM.
For `Cc1c(C)c2c(c(C)c1O)CCC(C)(CCc1ccccn1)O2` (racemic) [Example 58, rac-3,4-Dihydro-2,5,7,8-tetramethyl-2-[2-(2-pyridinyl)ethyl]-2H-1-benzopyran-6-ol], the inhibition in vivo at 1 mg in test [1] is 31%. Besides, in test [2], the IC50 was 700 nM.
On to `Cc1c(C)c2c(c(C)c1O)CCC(C)(C#Cc1cccs1)O2` (racemic) [Example 4, rac-3,4-Dihydro-2,5,7,8-tetramethyl-2-[(2-thienyl)ethynyl]-2H-1-benzopyran-6-ol], for which, in test [1], the inhibition in vivo at 1 mg was determined as 61%. Further, in test [2], the IC50 was determined as 900 nM.
Consider `Cc1c(C)c2c(c(C)c1O)CCC(C)(C#Cc1cccnc1)O2` (racemic) [Example 14, rac-3,4-Dihydro-2,5,7,8-tetramethyl-2-[(3-pyridinyl)ethynyl]-2H-1-benzopyran-6-ol], for which, in test [1], the inhibition in vivo at 1 mg was 20%. In addition, the IC50 in test [2] is 600 nM.
For `Cc1c(C)c2c(c(C)c1O)CCC(C)(c1cc3ccccc3o1)O2` (racemic) [Example 50 (CH; H, H, H), rac-2-(2-Benzofuranyl)-3,4-dihydro-2,5,7,8-tetramethyl-2H-1-benzopyran-6-ol] the same measures were 68% and 1000 nM.
For `Cc1c(C)c2c(c(C)c1O)CCC(C)(C#Cc1cccc(C(F)(F)F)c1)O2` (racemic) [Example 35, rac-2-{[3-(Trifluoromethyl)phenyl]ethynyl-3,4-dihydro-2,5,7,8-tetramethyl-2H-1-benzopyran-6-ol] the same measures were 15% and 800 nM.
`Cc1c(C)c2c(c(C)c1O)CCC(C)(c1cc3ncccc3o1)O2` (racemic) [Example 52, rac-3,4-Dihydro-2-(furo[3,2-b]pyridine-2-yl)-2,5,7,8-tetramethyl-2H-1-benzopyran-6-ol]: in test [1], the inhibition in vivo at 1 mg came to 49%. The IC50 in test [2] was found to be 950 nM.
As to `CCCc1c(O)c(C(C)=O)cc2cc(C3(C)CCc4c(C)c(O)c(C)c(C)c4O3)oc12` (racemic) [Example 53, rac-1-2-(3,4-Dihydro-6-hydroxy-2,5,7,8-tetramethyl-2H-1-benzopyran-2-yl)-6-hydroxy-7-propylbenzofuran-5-yl]ethanone], the inhibition in vivo at 1 mg in test [1] came out at 54%. The IC50 in test [2] was found to be 600 nM.
For `Cc1c(C)c2c(c(C)c1O)CCC(C)(CCc1ccc(O)c(O)c1)O2` (racemic) [Example 61, rac-4-[2-(3,4-Dihydro-6-hydroxy-2,5,7,8-tetramethyl-2H-1-benzopyran-2-yl)ethyl]-1,2-benzenediol] the same measures were 55% and above 1000 nM.
